The values below come from patent publication US20220347144A1, “COMPOSITIONS AND METHODS FOR PREVENTING AND/OR REDUCING WEIGHT GAIN AND ASSOCIATED CONDITIONS” (University of Virginia Patent Foundation, priority 2019, published 2022).

Common to all, as to test: Liver transcript analysis by qRT-PCR
What all share (format): in vivo, mouse
Settings in all cases: HFD+NA
Background: Real-time PCR tracks product formation cycle by cycle.

One experiment concerns SIRT1. The method, then:
(§1) Transcript analysis. RNA was isolated from mouse liver by manual homogenization in TRIzol reagent (Invitrogen, Carlsbad, Calif., United States of America) following the manufacturer's instructions. Total RNA underwent DNase I treatment (New England Biolabs, Ipswich, Mass., United States of America) and cDNA was made using the ISCRIPT™ brand cDNA Synthesis Kit (Bio-Rad Laboratories, Hercules, Calif., United States of America). Quantitative real-time PCR was carried out using Bio-Rad SYBR® green probes (PPARα Bio-Rad Assay ID qMmuCID0005156; SIRT1 Bio-Rad Assay ID qMmuCID0015511; PGC1α Bio-Rad Assay ID qMmuCID0006032). The TATA binding protein (Bio-Rad Assay ID qMmuCID0040542) gene was used to normalize target gene abundance. Biological samples were run in triplicate.

The subject of another experiment is PGC1α. Here is the method: as §1
In another experiment the test system is PPARα. The method, then:
as §1

(Z)-tetracos-15-enoic acid [NA]: in the experiment with SIRT1, the “SIRT1 mRNA levels in liver” value is listed as “restored”. Further, the “PGC1α mRNA levels in liver” value in the experiment with PGC1α is reported as “restored”. For the same substance, the “PPARα mRNA levels in liver” value with PPARα was “increased”.
